Peptide text beside a SMILES is read from it.
How the values were obtained:
[1] = FBMN analysis of short peptides in small intestine contents and serum after oral DHG; settings: for Peptide signal (feature intensity) in the small intestine, 30 min / Peptide signal (feature intensity) in the small intestine, 60 min / Peptide signal (feature intensity) in the small intestine, 120 min / Peptide signal (feature intensity) in the small intestine, 240 min: small intestine contents, C57 mice, FBMN feature intensity, peptides smaller than 690 Da; for Peptide signal (feature intensity) in the small intestine, 30 min: 30 min after oral DHG; for Peptide signal (feature intensity) in the small intestine, 60 min: 60 min after oral DHG; for Peptide signal (feature intensity) in the small intestine, 120 min: 120 min after oral DHG; for Peptide signal (feature intensity) in the small intestine, 240 min: 240 min after oral DHG; for time detected in serum (FBMN): time points 0.5-4 h after oral DHG
[2] = system: Glu-induced HT-22 cells; assay: Neuroprotection in Glu-injured HT-22 cells (CCK-8 cell viability); settings: for Cell viability(%) in Glu-induced HT-22 cells: Glu-only model (0 μM) 40.759±1.939; for cell viability in Glu-injured HT-22 cells: 50 μM (stated for cyclo(Hyp-Ala)), 4 h pretreatment, then 20 mM Glu 24 h, model group 40.759 ± 1.939%
[3] = Serum pharmacokinetics of CDPs after oral administration of DHG (targeted LC-MS, noncompartmental analysis); settings: for AUC0–24h / C max / T max: serum, mice, oral DHG 1000 mg/kg
[4] = system: H2O2-induced HT-22 cells; assay: Neuroprotection in H2O2-injured HT-22 cells (CCK-8 cell viability); settings: for Cell viability(%) in H2O2-induced HT-22 cells: compound 50 μM, H2O2-only model (0 μM) 48.645±0.347

Row | Structure (SMILES) | Peptide signal (feature intensity) in the small intestine, 30 min [1] | Peptide signal (feature intensity) in the small intestine, 60 min [1] | Peptide signal (feature intensity) in the small intestine, 120 min [1] | Peptide signal (feature intensity) in the small intestine, 240 min [1] | Cell viability(%) in Glu-induced HT-22 cells ([2]; compound 25 μM) [%] | AUC0–24h [3] [ng·h/mL] | C max [3] [ng/mL] | T max [3] [min] | Cell viability(%) in H2O2-induced HT-22 cells [4] [%] | further results
1 | CC(C)[C@H](NC(=O)[C@@H](N)Cc1ccc(O)cc1)C(=O)O [Tyr-Val] (H-Tyr-Val-OH) | 2.96E+06 | 1.48E+06 | 0.00E+00 | 0.00E+00 |  |  |  |  |  | 
2 | CC(C)[C@H](N)C(=O)NCC(=O)N[C@H](C(=O)O)C(C)C [Val-Gly-Val] (H-Val-Gly-Val-OH) | 4.35E+07 | 3.24E+07 | 0.00E+00 | 4.99E+06 |  |  |  |  |  | 
3 | CC[C@H](C)[C@H](NC(=O)[C@@H](N)C(C)C)C(=O)N[C@@H](CCCCN)C(=O)O [Val-Ile-Lys] (H-Val-Ile-Lys-OH) | 0.00E+00 | 2.02E+05 | 0.00E+00 | 4.35E+06 |  |  |  |  |  | 
4 | CC(C)CC(NC(=O)C(N)C(C)C)C(=O)O (stereo not drawn) [Val-Leu] (H-Val-Leu-OH; configuration not given here) | 2.94E+06 | 3.78E+06 | 0.00E+00 | 0.00E+00 |  |  |  |  |  | 
5 | CSCC[C@H](NC(=O)[C@@H](N)C(C)C)C(=O)O [Val-Met] (H-Val-Met-OH) | 3.30E+06 | 7.38E+06 | 0.00E+00 | 0.00E+00 |  |  |  |  |  | 
6 | CC(C)[C@H](N)C(=O)N[C@@H](Cc1ccccc1)C(=O)O [Val-Phe] (H-Val-Phe-OH) | 1.38E+06 | 1.78E+06 | 0.00E+00 | 0.00E+00 |  |  |  |  |  | 
7 | CC(C)[C@H](N)C(=O)N[C@@H](Cc1c[nH]c2ccccc12)C(=O)O [Val-Trp] (H-Val-Trp-OH) | 4.66E+05 | 4.22E+05 | 6.61E+05 | 1.64E+06 |  |  |  |  |  | 
8 | CC(C)[C@H](N)C(=O)N[C@H](C(=O)O)C(C)C [Val-Val] (H-Val-Val-OH) | 5.52E+06 | 1.24E+07 | 0.00E+00 | 0.00E+00 |  |  |  |  |  | 
9 | O=C1NCC(=O)N2CCC[C@@H]12 [cyclo(Gly-Pro)] |  |  |  |  | 54.865±0.079 | 15547.0170 | 4259.0300 | 60 | 53.985±7.459 | Cell viability(%) in Glu-induced HT-22 cells ([2]; compound 50 μM): 58.506±3.833%; time remained detectable in serum ([3]; serum/blood after oral DHG, sampled to 24 h): 12 h
10 | CC1NC(=O)C2CC(O)CN2C1=O (stereo not shown) [cyclo(Hyp-Ala)] |  |  |  |  | 54.245±1.226 | 2561.8131 | 400.1572 | 60 |  | cell viability in Glu-injured HT-22 cells [2]: 70.614 ± 4.85 % cell viability; cell viability in H2O2-injured HT-22 cells ([4]; 50 μM, 4 h pretreatment, then 400 μM H2O2 24 h): 68.515 ± 2.290%
11 | CC(C)CC1NC(=O)C2CC(O)CN2C1=O (stereo not shown) [cyclo(Hyp-Leu)] |  |  |  |  | 53.193±5.729 | 301.1580 | 110.4803 | 30 | 60.867±9.188 | time detected in serum (FBMN) [1]: 0.5 to 4 h; Cell viability(%) in Glu-induced HT-22 cells ([2]; compound 50 μM): 53.590±3.417%
12 | CC(C)CC1NC(=O)C2CC(O)CN2C1=O [cyclo(L-Leu-L-Hyp)] | 9.23E+06 | 0.00E+00 | 5.32E+06 | 2.54E+06 |  |  |  |  |  | 
13 | O=C1N[C@@H](Cc2ccccc2)C(=O)N2C[C@@H](O)C[C@@H]12 [cyclo(L-Phe-L-4-Hyp)] | 1.19E+07 | 0.00E+00 | 1.15E+07 | 6.80E+06 |  |  |  |  |  | 
14 | CC(C)[C@@H]1NC(=O)[C@@H]2CCCN2C1=O [cyclo(L-Val-L-Pro)] | 3.95E+05 | 0.00E+00 | 6.03E+05 | 4.57E+05 |  |  |  |  |  | 
15 | CC(C)C[C@@H]1NC(=O)[C@H](Cc2ccccc2)NC1=O [cyclo(Leu-Phe)] |  |  |  |  |  |  |  |  |  | time detected in serum (FBMN) [1]: 0.5 to 4 h
16 | CC(C)CC1NC(=O)C(Cc2ccccc2)NC1=O (stereo not shown) [cyclo(Phe-Leu)] | 1.01E+05 | 0.00E+00 | 8.22E+05 | 4.33E+05 |  |  |  |  |  | 
17 | O=C1N[C@@H](Cc2cnc[nH]2)C(=O)N2CCC[C@@H]12 [cyclo(Pro-His), cyclo(His-Pro)] |  |  |  |  | 52.701±4.050 | 13.9981 | 1.9830 | 30 | 55.307±7689 | Cell viability(%) in Glu-induced HT-22 cells ([2]; compound 50 μM): 55.361±5.121%
18 | CC[C@H](C)[C@@H]1NC(=O)[C@@H]2CCCN2C1=O [cyclo(Pro-Ile)] |  |  |  |  | 58.030±5.577 | 71.9933 | 24.5331 | 30 | 61.087±0.749 | cell viability in Glu-injured HT-22 cells [2]: 63.104 ± 2.519 % cell viability
19 | CC(C)CC1NC(=O)C2CCCN2C1=O (stereo not shown) [cyclo(Pro-Leu)] |  |  |  |  | 52.208±0.555 | 176.6962 | 81.2502 | 30 | 57.413±6.700 | time detected in serum (FBMN) [1]: 0.5 to 4 h; Cell viability(%) in Glu-induced HT-22 cells ([2]; compound 50 μM): 55.781±2.676%
20 | O=C1[C@@H]2CCCN2C(=O)[C@@H]2CCCN12 [cyclo(Pro-Pro)] |  |  |  |  | 57.390±2.465 | 487.9963 | 197.3334 | 30 | 60.084±2.807 | Cell viability(%) in Glu-induced HT-22 cells ([2]; compound 50 μM): 58.451±5.789%; time of decline / return to baseline in serum ([3]; serum after oral DHG): up to 8 h
21 | CC(C)[C@@H]1NC(=O)[C@@H]2CCCN2C1=O [cyclo(Pro-Val)] |  |  |  |  | 57.390±2.314 | 201.4294 | 78.4401 | 30 | 60.019±9.124 | time detected in serum (FBMN) [1]: 0.5 to 4 h; Cell viability(%) in Glu-induced HT-22 cells ([2]; compound 50 μM): 58.518±3.306%
22 | O=C1CNC(=O)C(Cc2ccccc2)N1 [cyclo(glycinyl-L-phenylalanine)] | 1.21E+06 | 0.00E+00 | 9.00E+05 | 4.18E+05 |  |  |  |  |  | 

Reference: article PMC12616683, “In Vivo Atlas of Neuroprotective Cyclic Dipeptides Derived from Food Gelatin Using Peptidomics and Feature-Based Molecular Networking” (Journal of Agricultural and Food Chemistry, 2025)
